# Data reported in patent publication US10441663B2, “Methods for treating cancer” (Bicycle Therapeutics Limited, priority 2016, dated 2019).
# *1 amine or outer side, *2 acyl side, *3 side chain or, on linkers, in order; H or OH if unused. Where a SMILES comes first, the peptide text is derived from it. Bridges are numbered along the chain shown (N, C = ends). [ ]: non-standard residue; d: D form. The star is where a group is joined. X1 = COc1cc2cc(c1Cl)N(C)C(=O)C[C@H](OC(=O)[C@H](C)N(C)C(=O)CCSSC(C)CCC(=O)*)[C@]1(C)O[C@H]1[C@H](C)[C@@H]1C[C@@](O)(NC(=O)O1)[C@H](OC)/C=C/C=C(\C)C2; 1Nal = N[C@@H](Cc1cccc2ccccc12)C(=O)O; TBMB = c1c(C[*:1])cc(C[*:3])cc1C[*:2]; Tle = CC(C)(C)[C@H](N)C(=O)O; βAla = NCCC(=O)O; Sar = CNCC(=O)O
# Legend:
# [1] = test system: HT-29 xenograft; assay: In vivo efficacy of BT1718 in HT-29 xenograft; set-up: species or system Mus Musculus; key to Best response at 10 mg/kg: CR complete response; PR partial response
# Method: (§1) The objective of this study was to evaluate the in vivo anti-tumor efficacy of BT1718in treatment of HT1080, NCI-H292, NCI-H1975, MDA-MB-231, HCC1806, RPMI2650, HCT-15, HT-29 and SNU-16 xenograft in BALB/c nude mice.
# (§2) The HT1080, NCI-H292, NCI-H1975, MDA-MB-231, HCC1806, RPMI2650, HCT-15, HT-29 and SNU-16 tumor cells were maintained in vitro as a monolayer culture in medium supplemented with 10% heat inactivated fetal bovine serum at 37° C. in an […]. The tumor cells will be routinely subcultured twice weekly by trypsin-EDTA treatment. The cells growing in an exponential growth phase will be harvested and counted for tumor inoculation.
# (§3) Mouse was inoculated subcutaneously at the right flank with tumor cells for tumor development. The animals were randomized and treatment was started when the average tumor reaches certain volume for the efficacy study, the inoculating cell amounts and starting tumor size were shown as below in Table 9. The test article administration and the animal numbers in each group were shown in the experimental design in Table 10.
# (§4) All the procedures related to animal handling, care and the treatment in the study were performed according to the guidelines of the Association for Assessment and Accreditation of Laboratory Animal Care (AAALAC). At the time of routine monitoring, the animals were daily checked for any effects of tumor growth and treatments on normal behavior such as mobility, food and water consumption (by looking only), body weight gain/loss (body weights were measured every day), eye/hair matting and any other abnormal effect as stated in the protocol. Death and observed clinical signs were recorded on the basis of the numbers of animals within each subset.
# (§5) The major endpoint was to see if the tumor growth could be delayed or mice could be cured. Tumor size was measured three times weekly in two dimensions using a caliper, and the volume was expressed in mm^3 using the formula: V=0.5 a×b^2 where a and b are the long and short diameters of the tumor, respectively. The tumor size was then used for calculations of T/C value. The T/C value (in percent) is an indication of antitumor effectiveness; T and C are the mean volumes of the treated and control groups, respectively, on a given day.
# (§6) TGI was calculated for each group using the formula: TGI (%)=[1−(Ti−T0)/(Vi−V0)]×100; Ti is the average tumor volume of a treatment group on a given day, T0 is the average tumor volume of the treatment group on the day of treatment start, Vi is the average tumor volume of the vehicle control group on the same day with Ti, and V0 is the average tumor volume of the vehicle group on the day of treatment start.
# (§7) Summary statistics, including mean and the standard error of the mean (SEM), are provided for the tumor volume of each group at each time point.
# (§8) Statistical analysis of difference in tumor volume among the groups was conducted on the data obtained at the best therapeutic time point after the final dose.
# (§9) A one-way ANOVA was performed to compare tumor volume among groups, and when a significant F-statistics (a ratio of treatment variance to the error variance) was obtained, comparisons between groups were carried out with Games-Howell test. All data were analyzed using Prism. P<0.05 was considered to be statistically significant.
# [2] = test system: MDA-MB-231 xenograft; assay: In vivo efficacy of BT1718 in MDA-MB-231 xenograft; set-up: species or system Mus Musculus; key to Best response at 10 mg/kg: CR complete response; PR partial response
# Method: as §1, §2, §3, §4, §5, §6, §7, §8, §9
# [3] = MDA-MB-231, 10 mpk, biw, day 14
smiles,measurement,setting,value
COc1cc2cc(c1Cl)N(C)C(=O)C[C@H](OC(=O)[C@H](C)N(C)C(=O)CCSSC(C)CCC(=O)NCCC(=O)N(C)CC(=O)N(C)CC(=O)N(C)CC(=O)N(C)CC(=O)N(C)CC(=O)N(C)CC(=O)N(C)CC(=O)N(C)CC(=O)N(C)CC(=O)N(C)CC(=O)N[C@@H](C)C(=O)N[C@H]1CSCc3cc4cc(c3)CSC[C@H](NC(=O)[C@@H](C)NC(=O)[C@H](Cc3cccc5ccccc35)NC(=O)[C@H](CCC(=O)O)NC(=O)[C@H](CC(N)=O)NC(=O)[C@@H](C)NC1=O)C(=O)N[C@@H](CCC(=O)O)C(=O)N[C@@H](CC(=O)O)C(=O)N[C@@H](Cc1ccccc1)C(=O)N[C@@H](Cc1ccc(O)cc1)C(=O)N[C@@H](CC(=O)O)C(=O)N[C@@H](C(C)(C)C)C(=O)N[C@H](C(N)=O)CSC4)[C@]1(C)O[C@H]1[C@H](C)[C@@H]1C[C@@](O)(NC(=O)O1)[C@H](OC)/C=C/C=C(\C)C2 (some centres unmarked) [BT1718] ({X1-βAla}-[Sar][Sar][Sar][Sar][Sar][Sar][Sar][Sar][Sar][Sar]AC[dA]NE[1Nal][dA]CEDFYD[Tle]C-NH2; linker 12-18-25 via TBMB (inferred)),tumor response,[1]; 10 mg/kg biw,"significant tumor inhibition effect, but didn't cause tumor regression"
same,Body Weight,"[1]; 1 mpk biw, day 0",23.0 ± 0.2 g
same,Tumor Volume,"[1]; 1 mpk biw, day 0",160 ± 27 mm^3
same,Body Weight,"[1]; 1 mpk biw, day 2",22.8 ± 0.2 g
same,Tumor Volume,"[1]; 1 mpk biw, day 2",189 ± 18 mm^3
same,Body Weight,"[1]; 1 mpk biw, day 4",22.3 ± 0.5 g
same,Tumor Volume,"[1]; 1 mpk biw, day 4",203 ± 13 mm^3
same,Body Weight,"[1]; 1 mpk biw, day 6",22.3 ± 0.5 g
same,Tumor Volume,"[1]; 1 mpk biw, day 6",260 ± 18 mm^3
same,Body Weight,"[1]; 1 mpk biw, day 8",22.3 ± 0.4 g
same,Tumor Volume,"[1]; 1 mpk biw, day 8",273 ± 35 mm^3
same,Body Weight,"[1]; 1 mpk biw, day 11",22.4 ± 0.7 g
same,Tumor Volume,"[1]; 1 mpk biw, day 11",453 ± 45 mm^3
same,Body Weight,"[1]; 1 mpk biw, day 13",22.3 ± 0.7 g
same,Tumor Volume,"[1]; 1 mpk biw, day 13",533 ± 43 mm^3
same,Body Weight,"[1]; 3 mpk biw, day 0",22.2 ± 0.2 g
same,Tumor Volume,"[1]; 3 mpk biw, day 0",159 ± 36 mm^3
same,Body Weight,"[1]; 3 mpk biw, day 2",22.1 ± 0.4 g
same,Tumor Volume,"[1]; 3 mpk biw, day 2",178 ± 41 mm^3
same,Body Weight,"[1]; 3 mpk biw, day 4",22.0 ± 0.5 g
same,Tumor Volume,"[1]; 3 mpk biw, day 4",214 ± 51 mm^3
same,Body Weight,"[1]; 3 mpk biw, day 6",22.4 ± 0.6 g
same,Tumor Volume,"[1]; 3 mpk biw, day 6",268 ± 70 mm^3
same,Body Weight,"[1]; 3 mpk biw, day 8",22.6 ± 0.6 g
same,Tumor Volume,"[1]; 3 mpk biw, day 8",297 ± 87 mm^3
same,Body Weight,"[1]; 3 mpk biw, day 11",22.0 ± 0.4 g
same,Tumor Volume,"[1]; 3 mpk biw, day 11",472 ± 129 mm^3
same,Body Weight,"[1]; 3 mpk biw, day 13",22.2 ± 0.3 g
same,Tumor Volume,"[1]; 3 mpk biw, day 13",616 ± 145 mm^3
same,Body Weight,"[1]; 10 mpk biw, day 0",24.6 ± 1.2 g
same,Tumor Volume,"[1]; 10 mpk biw, day 0",164 ± 32 mm^3
same,Body Weight,"[1]; 10 mpk biw, day 2",23.6 ± 1.2 g
same,Tumor Volume,"[1]; 10 mpk biw, day 2",177 ± 28 mm^3
same,Body Weight,"[1]; 10 mpk biw, day 4",22.1 ± 1.5 g
same,Tumor Volume,"[1]; 10 mpk biw, day 4",195 ± 36 mm^3
same,Body Weight,"[1]; 10 mpk biw, day 6",22.9 ± 1.5 g
same,Tumor Volume,"[1]; 10 mpk biw, day 6",232 ± 54 mm^3
same,Body Weight,"[1]; 10 mpk biw, day 8",21.2 ± 1.2 g
same,Tumor Volume,"[1]; 10 mpk biw, day 8",198 ± 44 mm^3
same,Body Weight,"[1]; 10 mpk biw, day 11",21.2 ± 1.7 g
same,Tumor Volume,"[1]; 10 mpk biw, day 11",182 ± 46 mm^3
same,Body Weight,"[1]; 10 mpk biw, day 13",21.7 ± 1.0 g
same,Tumor Volume,"[1]; 10 mpk biw, day 13",146 ± 32 mm^3
same,Best response at 10 mg/kg,"[1]; HT-29, 10 mg/kg",PR
same,TGI,"[1]; HT-29, 1 mpk, biw, day 14",24.0%
same,Tumor Volume,"[1]; HT-29, 1 mpk, biw, day 14",533 ± 43 mm^3
same,TGI,"[1]; HT-29, 3 mpk, biw, day 14",6.8%
same,Tumor Volume,"[1]; HT-29, 3 mpk, biw, day 14",616 ± 145 mm^3
same,TGI,"[1]; HT-29, 10 mpk, biw, day 14",103.6%
same,Tumor Volume,"[1]; HT-29, 10 mpk, biw, day 14",146 ± 32 mm^3
same,Minimally Effective Dose IV BIW,"[1]; HT-29, dose leading to tumor-stasis",10 mg/kg
same,tumor behaviour on resumed treatment,[2]; 10 mg/kg biw re-treatment,slow re-growth
same,Body Weight,"[2]; 1 mpk biw, day 0",23.4 ± 0.5 g
same,Tumor Volume,"[2]; 1 mpk biw, day 0",187 ± 6 mm^3
same,Body Weight,"[2]; 1 mpk biw, day 2",23.3 ± 0.6 g
same,Tumor Volume,"[2]; 1 mpk biw, day 2",288 ± 25 mm^3
same,Body Weight,"[2]; 1 mpk biw, day 4",23.3 ± 0.6 g
same,Tumor Volume,"[2]; 1 mpk biw, day 4",435 ± 25 mm^3
same,Body Weight,"[2]; 1 mpk biw, day 7",24.6 ± 0.5 g
same,Tumor Volume,"[2]; 1 mpk biw, day 7",636 ± 53 mm^3
same,Body Weight,"[2]; 1 mpk biw, day 9",24.6 ± 0.6 g
same,Tumor Volume,"[2]; 1 mpk biw, day 9",822 ± 117 mm^3
same,Body Weight,"[2]; 1 mpk biw, day 11",24.1 ± 0.1 g
same,Tumor Volume,"[2]; 1 mpk biw, day 11",979 ± 51 mm^3
same,Body Weight,"[2]; 1 mpk biw, day 14",24.9 ± 0.5 g
same,Tumor Volume,"[2]; 1 mpk biw, day 14",1221 ± 62 mm^3
same,Body Weight,"[2]; 3 mpk biw, day 0",23.0 ± 0.9 g
same,Tumor Volume,"[2]; 3 mpk biw, day 0",187 ± 11 mm^3
same,Body Weight,"[2]; 3 mpk biw, day 2",22.5 ± 1.0 g
same,Tumor Volume,"[2]; 3 mpk biw, day 2",281 ± 23 mm^3
same,Body Weight,"[2]; 3 mpk biw, day 4",22.3 ± 1.0 g
same,Tumor Volume,"[2]; 3 mpk biw, day 4",389 ± 21 mm^3
same,Body Weight,"[2]; 3 mpk biw, day 7",23.8 ± 1.1 g
same,Tumor Volume,"[2]; 3 mpk biw, day 7",547 ± 38 mm^3
same,Body Weight,"[2]; 3 mpk biw, day 9",23.8 ± 1.1 g
same,Tumor Volume,"[2]; 3 mpk biw, day 9",729 ± 74 mm^3
same,Body Weight,"[2]; 3 mpk biw, day 11",23.6 ± 1.1 g
same,Tumor Volume,"[2]; 3 mpk biw, day 11",829 ± 79 mm^3
same,Body Weight,"[2]; 3 mpk biw, day 14",23.9 ± 1.3 g
same,Tumor Volume,"[2]; 3 mpk biw, day 14",1021 ± 65 mm^3
same,Body Weight,"[2]; 10 mpk biw, day 0",23.3 ± 1.0 g
same,Tumor Volume,"[2]; 10 mpk biw, day 0",187 ± 10 mm^3
same,Body Weight,"[2]; 10 mpk biw, day 2",22.9 ± 1.3 g
same,Tumor Volume,"[2]; 10 mpk biw, day 2",270 ± 25 mm^3
same,Body Weight,"[2]; 10 mpk biw, day 4",22.2 ± 0.9 g
same,Tumor Volume,"[2]; 10 mpk biw, day 4",312 ± 27 mm^3
same,Body Weight,"[2]; 10 mpk biw, day 7",23.3 ± 1.2 g
same,Tumor Volume,"[2]; 10 mpk biw, day 7",294 ± 31 mm^3
same,Body Weight,"[2]; 10 mpk biw, day 9",23.0 ± 1.1 g
same,Tumor Volume,"[2]; 10 mpk biw, day 9",248 ± 23 mm^3
same,Body Weight,"[2]; 10 mpk biw, day 11",21.6 ± 1.0 g
same,Tumor Volume,"[2]; 10 mpk biw, day 11",204 ± 19 mm^3
same,Body Weight,"[2]; 10 mpk biw, day 14",24.3 ± 1.1 g
same,Tumor Volume,"[2]; 10 mpk biw, day 14",158 ± 20 mm^3
same,Best response at 10 mg/kg,"[2]; MDA-MB-231, 10 mg/kg",CR
same,TGI,"[2]; MDA-MB-231, 1 mpk, biw, day 14",7.6%
same,Tumor Volume,"[2]; MDA-MB-231, 1 mpk, biw, day 14",1221 ± 62 mm^3
same,TGI,"[2]; MDA-MB-231, 3 mpk, biw, day 14",25.5%
same,Tumor Volume,"[2]; MDA-MB-231, 3 mpk, biw, day 14",1021 ± 65 mm^3
same,TGI,[2]; [3],102.6%
same,Tumor Volume,[2]; [3],158 ± 20 mm^3
same,Minimally Effective Dose IV BIW,"[2]; MDA-MB-231, dose leading to tumor-stasis",<10 mg/kg
same,dosing suspension until re-growth to 150 mm3,[2]; after 10 mg/kg biw,3 weeks
same,tumor volume after regression,[2]; after 2-3 weeks 10 mg/kg biw,below 50 mm3
